Measurements published in PubChem BioAssay AID1963448 (Molecular Pharmacology Branch, DTP, NCI, 2024).

Tested on: 616215-338-R-J1-PDC complex spheroid growth, % test/control
Experiment: Anticancer human tumor 616215-338-R-J1-PDC patient-derived colon adenocarcinoma cell line growth inhibition [Asc]
Settings: for IC50: curve of first compound; for viability, T/C: stronger effect = lower value
Procedure, shortened: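 Complex solid-tumor spheroids incorporating human endothelial and mesenchymal stem cells received single agents or combinations over half-log dilution ranges anchored to clinical Cmax.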

[1] = second compound 0.1 µM, first compound 0.0316 µM
[2] = second compound 0.1 µM, first compound 0.1 µM
[3] = second compound 0.1 µM, first compound 0.316 µM
[4] = second compound 0.1 µM, first compound 1 µM
[5] = second compound 0.1 µM, first compound 3.16 µM
[6] = second compound 0.1 µM, first compound 10 µM
[7] = second compound 0.316 µM, first compound 0.0316 µM
[8] = second compound 0.316 µM, first compound 0.1 µM
[9] = second compound 0.316 µM, first compound 0.316 µM
[10] = second compound 0.316 µM, first compound 1 µM
[11] = second compound 0.316 µM, first compound 3.16 µM
[12] = second compound 0.316 µM, first compound 10 µM
[13] = second compound 1 µM, first compound 0.0316 µM
[14] = second compound 1 µM, first compound 0.1 µM
[15] = second compound 1 µM, first compound 0.316 µM
[16] = second compound 1 µM, first compound 1 µM
[17] = second compound 1 µM, first compound 3.16 µM
[18] = second compound 1 µM, first compound 10 µM
[19] = second compound 3.16 µM, first compound 0.0316 µM
[20] = second compound 3.16 µM, first compound 0.1 µM
[21] = second compound 3.16 µM, first compound 0.316 µM
[22] = second compound 3.16 µM, first compound 1 µM
[23] = second compound 3.16 µM, first compound 3.16 µM
[24] = second compound 3.16 µM, first compound 10 µM
[25] = second compound 10 µM, first compound 0.0316 µM
[26] = second compound 10 µM, first compound 0.1 µM
[27] = second compound 10 µM, first compound 0.316 µM
[28] = second compound 10 µM, first compound 1 µM
[29] = second compound 10 µM, first compound 3.16 µM
[30] = second compound 10 µM, first compound 10 µM
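Note: spheroids exposed to agents for seven days before readout.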
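Throughout, for viability, T/C: 100% = DMSO vehicle control viability.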

In the case of `C=C(F)C(=O)N1CCN(c2nc(OCC3CCCN3C)nc3c2CCN(c2cccc4cccc(Cl)c24)C3)CC1CC#N` (stereo not given) + Cc1c(S(C)(=O)=O)c(-c2cc(F)cc(N3CCN(c4ccc(NS(=O)(=O)c5ccc(NC(CCN6CCC(C(=O)OCCCP(=O)(O)O)CC6)CSc6ccccc6)c(S(=O)(=O)C(F)(F)F)c5)cc4)CC3)c2)c(-c2ccc(Cl)cc2)n1C(C)C, the IC50 (second compound 0.1 µM) is reported as 5430 nM, the IC50 (second compound 0.316 µM) is reported as 4900 nM and the IC50 (second compound 1 µM) is reported as 2950 nM. For the same compound, the IC50 (second compound 3.16 µM) was less than 31.6 nM, the IC50 (second compound 10 µM) was less than 31.6 nM and the viability, T/C [1] was 93.2%. For the same compound, the viability, T/C [2] was 91.6%, the viability, T/C [3] was 87.8% and the viability, T/C [4] was 100%. For the same compound, the viability, T/C [5] was 96.1%, the viability, T/C [6] was 0.45% and the viability, T/C [7] was 89.1%. It also gave a viability, T/C [8] of 89.3%, a viability, T/C [9] of 85.6% and a viability, T/C [10] of 88.5%. For the same compound, the viability, T/C [11] was 80.4%, the viability, T/C [12] was 0.42% and the viability, T/C [13] was 65%. It also gave a viability, T/C [14] of 70.8%, a viability, T/C [15] of 67.9% and a viability, T/C [16] of 62.8%. For the same compound, the viability, T/C [17] was 49.4%, the viability, T/C [18] was 0.39% and the viability, T/C [19] was 37.2%. For the same compound, the viability, T/C [20] was 36.6%, the viability, T/C [21] was 35.4% and the viability, T/C [22] was 32%. For the same compound, the viability, T/C [23] was 2.23%, the viability, T/C [24] was 0.3% and the viability, T/C [25] was 26.4%. The viability, T/C [26] was 23.3%, the viability, T/C [27] was 20.3% and the viability, T/C [28] was 18.8%. For the same compound, the viability, T/C [29] was 1.56% and the viability, T/C [30] was 0.39%.

In the case of `C=CC(=O)N1CCN(c2nc(=O)n(-c3c(C)ccnc3C(C)C)c3nc(-c4c(O)cccc4F)c(F)cc23)C(C)C1` (stereo not given) + Cc1c(S(C)(=O)=O)c(-c2cc(F)cc(N3CCN(c4ccc(NS(=O)(=O)c5ccc(NC(CCN6CCC(C(=O)OCCCP(=O)(O)O)CC6)CSc6ccccc6)c(S(=O)(=O)C(F)(F)F)c5)cc4)CC3)c2)c(-c2ccc(Cl)cc2)n1C(C)C, the IC50 (second compound 0.1 µM) is reported as greater than 10000 nM, the IC50 (second compound 0.316 µM) is reported as greater than 10000 nM and the IC50 (second compound 1 µM) is reported as 2350 nM. For the same compound, the IC50 (second compound 3.16 µM) was less than 31.6 nM, the IC50 (second compound 10 µM) was less than 31.6 nM and the viability, T/C [1] was 87.5%. It also gave a viability, T/C [2] of 89.8%, a viability, T/C [3] of 90.4% and a viability, T/C [4] of 92.9%. For the same compound, the viability, T/C [5] was 87.5%, the viability, T/C [6] was 88.3% and the viability, T/C [7] was 87.7%. It also gave a viability, T/C [8] of 86.9%, a viability, T/C [9] of 84.5% and a viability, T/C [10] of 92.1%. It also gave a viability, T/C [11] of 83.4%, a viability, T/C [12] of 64.4% and a viability, T/C [13] of 67.6%. For the same compound, the viability, T/C [14] was 74.5%, the viability, T/C [15] was 68% and the viability, T/C [16] was 61.6%. It also gave a viability, T/C [17] of 45.9%, a viability, T/C [18] of 42% and a viability, T/C [19] of 36%. The viability, T/C [20] was 40.6%, the viability, T/C [21] was 37.9% and the viability, T/C [22] was 30.2%. The viability, T/C [23] was 22.3%, the viability, T/C [24] was 17.7% and the viability, T/C [25] was 24.9%. For the same compound, the viability, T/C [26] was 26.2%, the viability, T/C [27] was 21.9% and the viability, T/C [28] was 20%. It also gave a viability, T/C [29] of 17.5% and a viability, T/C [30] of 5.58%.

In the case of `CCN1C(C(=O)NC23CCC(C(=O)O)(CC2)CC3)C(c2cccc(Cl)c2F)C2(C(=O)Nc3cc(Cl)ccc32)C12CCCCC2` (stereo not given) + Cc1c(S(C)(=O)=O)c(-c2cc(F)cc(N3CCN(c4ccc(NS(=O)(=O)c5ccc(NC(CCN6CCC(C(=O)OCCCP(=O)(O)O)CC6)CSc6ccccc6)c(S(=O)(=O)C(F)(F)F)c5)cc4)CC3)c2)c(-c2ccc(Cl)cc2)n1C(C)C, the IC50 (second compound 0.1 µM) is reported as 490 nM, the IC50 (second compound 0.316 µM) is reported as 123 nM and the IC50 (second compound 1 µM) is reported as 11 nM. The IC50 (second compound 3.16 µM) was less than 9.49 nM, the IC50 (second compound 10 µM) was less than 9.49 nM and the viability, T/C (second compound 0.1 µM, first compound 0.00949 µM) was 92.5%. It also gave a viability, T/C (second compound 0.1 µM, first compound 0.03 µM) of 101%, a viability, T/C (second compound 0.1 µM, first compound 0.0949 µM) of 77.3% and a viability, T/C (second compound 0.1 µM, first compound 0.3 µM) of 50.7%. For the same compound, the viability, T/C (second compound 0.1 µM, first compound 0.949 µM) was 43.3%, the viability, T/C (second compound 0.1 µM, first compound 3 µM) was 2.3% and the viability, T/C (second compound 0.316 µM, first compound 0.00949 µM) was 89.4%. The viability, T/C (second compound 0.316 µM, first compound 0.03 µM) was 81.1%, the viability, T/C (second compound 0.316 µM, first compound 0.0949 µM) was 51.6% and the viability, T/C (second compound 0.316 µM, first compound 0.3 µM) was 34.3%. The viability, T/C (second compound 0.316 µM, first compound 0.949 µM) was 3.82%, the viability, T/C (second compound 0.316 µM, first compound 3 µM) was 0.48% and the viability, T/C (second compound 1 µM, first compound 0.00949 µM) was 53.2%. The viability, T/C (second compound 1 µM, first compound 0.03 µM) was 29.8%, the viability, T/C (second compound 1 µM, first compound 0.0949 µM) was 17.1% and the viability, T/C (second compound 1 µM, first compound 0.3 µM) was 7.2%. It also gave a viability, T/C (second compound 1 µM, first compound 0.949 µM) of 2.56%, a viability, T/C (second compound 1 µM, first compound 3 µM) of 0.18% and a viability, T/C (second compound 3.16 µM, first compound 0.00949 µM) of 20.3%. For the same compound, the viability, T/C (second compound 3.16 µM, first compound 0.03 µM) was 5.05%, the viability, T/C (second compound 3.16 µM, first compound 0.0949 µM) was 1.2% and the viability, T/C (second compound 3.16 µM, first compound 0.3 µM) was 0.74%. It also gave a viability, T/C (second compound 3.16 µM, first compound 0.949 µM) of 0.06%, a viability, T/C (second compound 3.16 µM, first compound 3 µM) of 0.2% and a viability, T/C (second compound 10 µM, first compound 0.00949 µM) of 4.94%. For the same compound, the viability, T/C (second compound 10 µM, first compound 0.03 µM) was 1.17%, the viability, T/C (second compound 10 µM, first compound 0.0949 µM) was 0.43% and the viability, T/C (second compound 10 µM, first compound 0.3 µM) was 0.5%. For the same compound, the viability, T/C (second compound 10 µM, first compound 0.949 µM) was 1.65% and the viability, T/C (second compound 10 µM, first compound 3 µM) was 1.41%.

`COc1c(OCCCN2CCOCC2)ccc2c3n(c(=NC(=O)c4cnc(N)nc4)nc12)CCN3` + Cc1c(S(C)(=O)=O)c(-c2cc(F)cc(N3CCN(c4ccc(NS(=O)(=O)c5ccc(NC(CCN6CCC(C(=O)OCCCP(=O)(O)O)CC6)CSc6ccccc6)c(S(=O)(=O)C(F)(F)F)c5)cc4)CC3)c2)c(-c2ccc(Cl)cc2)n1C(C)C was tested, and the IC50 (second compound 0.1 µM) was 231 nM, the IC50 (second compound 0.316 µM) was 185 nM and the IC50 (second compound 1 µM) was 126 nM. For the same compound, the IC50 (second compound 3.16 µM) was 36.4 nM, the IC50 (second compound 10 µM) was less than 3.16 nM and the viability, T/C (second compound 0.1 µM, first compound 0.00316 µM) was 93.1%. For the same compound, the viability, T/C (second compound 0.1 µM, first compound 0.01 µM) was 100%, the viability, T/C [1] was 100% and the viability, T/C [2] was 88.2%. The viability, T/C [3] was 35.5%, the viability, T/C [4] was 7.35% and the viability, T/C (second compound 0.316 µM, first compound 0.00316 µM) was 90.5%. It also gave a viability, T/C (second compound 0.316 µM, first compound 0.01 µM) of 96.7%, a viability, T/C [7] of 105% and a viability, T/C [8] of 81.1%. For the same compound, the viability, T/C [9] was 22.2%, the viability, T/C [10] was 2.69% and the viability, T/C (second compound 1 µM, first compound 0.00316 µM) was 71.7%. For the same compound, the viability, T/C (second compound 1 µM, first compound 0.01 µM) was 78.3%, the viability, T/C [13] was 78.6% and the viability, T/C [14] was 60.6%. For the same compound, the viability, T/C [15] was 7.07%, the viability, T/C [16] was 0.53% and the viability, T/C (second compound 3.16 µM, first compound 0.00316 µM) was 45.4%. It also gave a viability, T/C (second compound 3.16 µM, first compound 0.01 µM) of 53.2%, a viability, T/C [19] of 63% and a viability, T/C [20] of 22.1%. For the same compound, the viability, T/C [21] was 1.45%, the viability, T/C [22] was 0.19% and the viability, T/C (second compound 10 µM, first compound 0.00316 µM) was 28.8%. The viability, T/C (second compound 10 µM, first compound 0.01 µM) was 30.3%, the viability, T/C [25] was 35.4% and the viability, T/C [26] was 4.88%. It also gave a viability, T/C [27] of 0.24% and a viability, T/C [28] of 0.29%.
